Experimental data taken from patent US8304002B2, “Fenugreek extract for treating human and animal diseases involving flagellate parasites” (Setubio S.A.S., priority 2008, dated 2012).

Legend:
[1] = system: Histomonas meleagridis; assay: Anti-Histomonas activity: in vitro culture with parasite counts; assay type: cell-based
Experimental: The strain of H. meleagridis was isolated from the caeca of turkeys experimentally infested with eggs of the H. gallinarum worm. The parasites were cultured at 39° C. in sealed glass tubes containing 3 mL of supplemented M199 medium. They were transferred twice a week. To do this, 80 μL of preculture were added to 3 mL of fresh medium previously heated in a water bath to 39° C. Counting was performed in a Malassez counting chamber after staining with 0.4% trypan blue. The 100 fields of the chamber were counted. […] was tested at different concentrations. A parasite count was performed three times after 72 h incubation. A negative control was included by replacing the extract with the solvent only (sterile water). To study the dose-dependent effect, each test was performed in triplicate, with different concentrations, counting the parasites at 24 h, 48 h and 72 h. A negative control was included by replacing the extract with the solvent only.

[2] = system: MRC5 cells; assay: Cytotoxicity test (protein assay, SRB) on MRC5 cells; assay type: cell-based, human; details: MRC5, 100 μg/mL to 2 mg/mL, 24 h and 48 h
Experimental: The MRC5 cells (primary human foetal lung fibroblasts) were cultured in 25 or 75 cm^2 dishes in supplemented MEM (Minimum Essential Medium, Life Technologies Gibco), in a chamber at 37° C. and % CO2. 500 mL of MEM was supplemented with foetal calf serum (10% final), glutamine 2 mM (5 mL), antibiotics (5 mL penicillin/streptomycin i.e. […], 0.5 mL ampicillin i.e. 10 μg/ml, 0.25 mL gentamicin i.e. 25 μg/mL) and fungicides (5 mL fungizone i.e. 2.5 μg/mL). When the cells reached confluence, they were trypsinised and transferred into 96-well plates at […]. They were then incubated at 37° C., 5% CO2 for 24 h before starting the test. The plates were duplicated for a protein assay after 24 and 48 h. This test consists of culturing the cells in the presence of extracts, then precipitating total proteins to determine their concentration. The MRC5 cells were put into contact with 200 μL of supplemented MEM containing different concentrations of the extracts to be tested. […] Each dilution was tested in triplicate to produce a mean. Two controls were used: • a negative control: cells in the supplemented MEM only • a positive control: cells in the presence of a mixture of the supplemented MEM and 50% DMSO The plates were then incubated at 37° C., 5% CO2 for 24 or 48 h. […] The contents of the wells were homogenised and the optical density read at 490 nm. […]

[3] = system: Histomonas meleagridis; assay: Regrowth of H. meleagridis after transfer into fresh medium following 72 h treatment; assay type: cell-based
Experimental: After 72 h of treatment with […] and DMZ, the parasites were put into fresh medium for 96 h to analyse the histomonicidal effect (FIG. 5).

[4] = system: bacterial flora associated with H. meleagridis; assay: Effect on the bacterial flora associated with H. meleagridis; assay type: cell-based; details: 48 h of culture, FIG. 4
Experimental: An aliquot of H. meleagridis culture was taken. Four serial dilutions (10^-4 to 10^-7) were made in liquid tryptone soya medium. 20 μL of each dilution was spread onto tryptone soya agar medium. Incubation at 37° C. overnight. The effects of different concentrations of […] and of DMZ on the associated bacterial flora after 48 h of culture were then compared. The results are expressed in number of bacteria per mL (FIG. 4). The extract […] was histomonicidal from 1 mg/mL. It had no effect on the associated bacterial flora. Dimetridazole is histomonicidal from 25 μg/mL at 72 h. On the other hand it is bactericidal from 400 μg/mL.

[5] = 25 μg/mL for 72 h, then fresh medium 96 h

SMILES	inhibition at 2000 µg/mL ([1]; Histomonas meleagridis, 2 mg/mL, at 72 h, read-out: inhibition of proliferation of H. meleagridis)	effect on the proliferation of H. meleagridis ([1]; at 2 mg/mL)	cytotoxicity for human cells in culture [2]	effect on growth of H. meleagridis (in words) ([1]; FIG. 3, tested in parallel S520/DMZ)	concentration from which histomonicidal ([1]; at 72 h)	concentration at which parasiticidal ([1]; growth of H. meleagridis, FIG. 3)	regrowth of the culture ([3]; 12.5 μg/mL for 72 h, then fresh medium 96 h)	growth relative to the control after transfer [3, 5]	regrowth of the culture [3, 5]	regrowth of the culture ([3]; 400 μg/mL for 72 h, then fresh medium 96 h)	regrowth of the culture ([3]; 1 mg/mL for 72 h, then fresh medium 96 h)	concentration from which histomonicidal (confirmed by regrowth) ([3]; 72 h treatment, then fresh medium 96 h)	histomonicidal or histomonostatic (confirmed by regrowth) ([3]; at 25 μg/mL)	concentration from which bactericidal [4]
O=C(N/N=C/c1ccc([N+](=O)[O-])o1)c1cc([N+](=O)[O-])cc([N+](=O)[O-])c1O [Nifursol]	38%	slightly histomonostatic	not toxic	–	–	–	–	–	–	–	–	–	–	–
Cc1ncc([N+](=O)[O-])n1C [DMZ, dimetridazole]	–	–	–	parasitostatic	≥ 25 µg/mL	25 µg/mL	regrowth	about 30%	regrowth	No regrowth	No regrowth	≥ 400 µg/mL	histomonostatic	≥ 400 µg/mL
